This passage reports IC50 results from US10323022B2, “Pyrrolidinyl urea, pyrrolidinyl thiourea and pyrrolidinyl guanidine compounds as TrkA kinase inhibitors” (Array BioPharma Inc., priority 2011, dated 2019).

Each structure is given as a SMILES string. pIC50: −log10 of the molar value.

One may read the pIC50 as the IC50 on a negative log10 scale, so that one unit is a factor of ten. Low readings indicate a high IC50, high ones a low IC50.

Chain of TrkA (P04629 33-796): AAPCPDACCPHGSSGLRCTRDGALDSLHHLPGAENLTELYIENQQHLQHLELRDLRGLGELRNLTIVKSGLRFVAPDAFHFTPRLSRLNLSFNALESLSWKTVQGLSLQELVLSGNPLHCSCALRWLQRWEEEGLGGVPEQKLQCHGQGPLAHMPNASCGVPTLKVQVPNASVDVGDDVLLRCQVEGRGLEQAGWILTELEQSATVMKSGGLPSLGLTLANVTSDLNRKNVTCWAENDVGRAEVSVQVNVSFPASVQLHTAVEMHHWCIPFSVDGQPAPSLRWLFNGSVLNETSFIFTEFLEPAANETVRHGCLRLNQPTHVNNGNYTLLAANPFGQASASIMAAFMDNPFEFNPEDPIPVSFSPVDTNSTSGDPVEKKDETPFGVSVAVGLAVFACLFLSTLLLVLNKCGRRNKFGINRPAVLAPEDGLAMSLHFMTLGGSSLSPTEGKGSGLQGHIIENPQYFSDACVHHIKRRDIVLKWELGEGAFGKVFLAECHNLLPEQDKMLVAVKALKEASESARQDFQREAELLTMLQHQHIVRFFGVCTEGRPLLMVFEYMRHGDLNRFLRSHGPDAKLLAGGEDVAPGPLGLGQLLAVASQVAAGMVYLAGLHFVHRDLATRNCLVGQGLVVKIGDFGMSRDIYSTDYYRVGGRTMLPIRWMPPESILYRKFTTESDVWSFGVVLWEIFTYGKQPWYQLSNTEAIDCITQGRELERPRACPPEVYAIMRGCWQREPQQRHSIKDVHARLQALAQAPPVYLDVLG

In the experiment the target is TrkA (Homo sapiens (Human), UniProt P04629). Kind of experiment: TrkA Omnia Assay. In kind it is biochemical. To be noted: averaged IC50; 20 nM enzyme, 500 μM ATP, 10 μM peptide substrate. On the procedure:
Trk enzymatic selectivity was assessed using Omnia™ Kinase Assay reagents from Invitrogen Corp. Enzyme (TrkA from Invitrogen Corp.) and test compound (various concentrations) were incubated for 10 minutes at ambient temperature in a 384-well white polypropylene plate (Nunc catalog#267462). Omnia Tyr Peptide #4, as well as ATP, were then added to the plate. Final concentrations were as follows: 20 nM enzyme, 500 μM of ATP, 10 μM peptide substrate. The assay buffer consisted of 25 mM MOPS pH 7.5, 0.005% (v/v) Triton X-100 and 5 mM MgCl2. The production of phosphorylated peptide was monitored continuously for 70 minutes using a Molecular Devices FlexStation II^384 microplate reader (excitation=360 nm; emission=485 nm). Initial rates were calculated from the progress curves. IC50 values were calculated from these rates using either a 4 or 5-parameter logistic curve fit.
For the compound `COCCN1C[C@@H](NC(=O)Nc2c(C)c(OCC(C)(C)O)nn2-c2ccccc2)[C@H](c2ccc(F)cc2)C1` [Example 362, 1-((3S,4R)-4-(4-fluorophenyl)-1-(2-methoxyethyl)pyrrolidin-3-yl)-3-(3-(2-hydroxy-2-methylpropoxy)-4-methyl-1-phenyl-1H-pyrazol-5-yl)urea], the pIC50 is more than 7.00. As to `COCCN1C[C@@H](NC(=O)Nc2c(C)c(C(=O)NC(C)C)nn2-c2ccccc2)[C@H](c2ccc(F)c(F)c2)C1` [Example 462, 5-(3-((3S,4R)-4-(3,4-difluorophenyl)-1-(2-methoxyethyl)pyrrolidin-3-yl)ureido)-N-isopropyl-4-methyl-1-phenyl-1H-pyrazole-3-carboxamide], the pIC50 was more than 7.00. Regarding `CCOc1nn(-c2ccccc2)c(NC(=O)N[C@H]2CN(CC(F)(F)F)C[C@@H]2c2ccccc2)c1C` [Example 267, 1-(3-ethoxy-4-methyl-1-phenyl-1H-pyrazol-5-yl)-3-((3R,4S)-4-phenyl-1-(2,2,2-trifluoroethyl)pyrrolidin-3-yl)urea], the pIC50 was more than 7.00.

In turn, `COCCN1C[C@@H](NC(=O)Nc2c(C)c(OCCF)nn2-c2ccccc2)[C@H](c2ccc(F)c(F)c2)C1` [Example 144, 1-((3S,4R)-4-(3,4-difluorophenyl)-1-(2-methoxyethyl)pyrrolidin-3-yl)-3-(3-(2-fluoro-ethoxy)-4-methyl-1-phenyl-1H-pyrazol-5-yl)urea] gave a pIC50 of more than 7.00. The compound `COCCN1C[C@@H](NC(=O)Nc2cc(-c3ccccc3OC)nn2C)[C@H](c2ccc(F)c(F)c2)C1` [Example 106, 1-((3S,4R)-4-(3,4-difluorophenyl)-1-(2-methoxyethyl)pyrrolidin-3-yl)-3-(3-(2-methoxy-phenyl)-1-methyl-1H-pyrazol-5-yl)urea] had a pIC50 of 6.00 to 7.00. The figure for `COCCN1C[C@@H](NC(=O)Nc2c(C)c(-c3ccc(=O)n(C(C)C)c3)nn2-c2ccccc2)[C@H](c2ccc(F)c(F)c2)C1` [Example 535, 1-((3S,4R)-4-(3,4-difluorophenyl)-1-(2-methoxyethyl)pyrrolidin-3-yl)-3-(3-(1-isopropyl-6-oxo-1,6-dihydropyridin-3-yl)-4-methyl-1-phenyl-1H-pyrazol-5-yl)urea] is more than 7.00. The compound `COCCN1C[C@@H](NC(=O)Nc2c(C)c(OCc3nnc(C)o3)nn2-c2ccccc2)[C@H](c2ccc(F)c(F)c2)C1` [Example 355, 1-((3S,4R)-4-(3,4-difluorophenyl)-1-(2-methoxyethyl)pyrrolidin-3-yl)-3-(4-methyl-3-((5-methyl-1,3,4-oxadiazol-2-yl)methoxy)-1-phenyl-1H-pyrazol-5-yl)urea] had a pIC50 of more than 7.00.

Compound `COCCN1C[C@@H](NC(=O)Nc2cc(-c3ccc(CO)cc3)nn2C)[C@H](c2ccc(F)c(F)c2)C1` [Example 165, 1-((3S,4R)-4-(3,4-difluorophenyl)-1-(2-methoxyethyl)pyrrolidin-3-yl)-3-(3-(4-(hydroxymethyl)phenyl)-1-methyl-1H-pyrazol-5-yl)urea] gave a pIC50 of more than 7.00. To `COCCN1C[C@@H](NC(=O)Nc2c(C)c(-c3ccc(=O)n(CC(F)(F)F)c3)nn2-c2ccccc2)[C@H](c2ccc(F)c(F)c2)C1` [Example 517, 1-((3S,4R)-4-(3,4-difluorophenyl)-1-(2-methoxyethyl)pyrrolidin-3-yl)-3-(4-methyl-3-(6-oxo-1-(2,2,2-trifluoroethyl)-1,6-dihydropyridin-3-yl)-1-phenyl-1H-pyrazol-5-yl)urea] belongs more than 7.00; to `COCCN1C[C@@H](NC(=O)Nc2c(-c3ccccc3)c(OC)nn2C)[C@H](c2ccc(F)c(F)c2)C1` [Example 156, 1-((3S,4R)-4-(3,4-difluorophenyl)-1-(2-methoxyethyl)pyrrolidin-3-yl)-3-(3-methoxy-1-methyl-4-phenyl-1H-pyrazol-5-yl)urea], more than 7.00.

Compound `COCCN1C[C@@H](NC(=O)Nc2c(C)c(OC[C@H](O)COC)nn2-c2ccccc2)[C@H](c2cc(F)c(F)c(F)c2)C1` [Example 565, 1-(3-((R)-2-hydroxy-3-methoxypropoxy)-4-methyl-1-phenyl-1H-pyrazol-5-yl)-3-((3S,4R)-1-(2-methoxyethyl)-4-(3,4,5-trifluorophenyl)pyrrolidin-3-yl)urea] gave a pIC50 of more than 7.00.

`COCCN1C[C@@H](NC(=O)Nc2c(C)c(-c3cnn(C)c3)nn2-c2ccccc2)[C@H](c2cc(F)cc(Cl)c2)C1` (relative stereo) [Example 295, 1-(trans-4-(3-chloro-5-fluorophenyl)-1-(2-methoxyethyl)pyrrolidin-3-yl)-3-(1′,4-dimethyl-1-phenyl-1H,1′H-[3,4′-bipyrazol]-5-yl)urea]: the pIC50 is more than 7.00. In turn, `CCOc1nn(-c2ccccc2)c(NC(=O)N[C@@H]2CN(c3ccnn3C)C[C@H]2c2ccccc2)c1C` [Example 228, 1-(3-ethoxy-4-methyl-1-phenyl-1H-pyrazol-5-yl)-3-((3S,4R)-1-(1-methyl-1H-pyrazol-5-yl)-4-phenylpyrrolidin-3-yl)urea] showed a pIC50 of more than 7.00. The compound `COCCN1C[C@@H](NC(=O)Nc2c3c(nn2-c2ccccc2)COC3)[C@H](c2cc(F)cc(F)c2)C1` [Example 88, 1-((3S,4R)-4-(3,5-difluoro-phenyl)-1-(2-methoxyethyl)pyrrolidin-3-yl)-3-(2-phenyl-4,6-dihydro-2H-furo[3,4-c]pyrazol-3-yl) urea] had a pIC50 of more than 7.00. In the case of `COCCN1C[C@@H](NC(=O)Nc2c(Cl)c(CCO)nn2-c2ccccc2)[C@H](c2ccc(F)c(F)c2)C1` [Example 449, 1-(4-chloro-3-(2-hydroxyethyl)-1-phenyl-1H-pyrazol-5-yl)-3-((3S,4R)-4-(3,4-difluorophenyl)-1-(2-methoxyethyl)pyrrolidin-3-yl)urea], the pIC50 was more than 7.00.

In the case of `O=C(Nc1c2c(nn1-c1ccccc1)CCC2)N[C@@H]1CN(CC(F)(F)F)C[C@H]1c1ccccc1F` (relative stereo) [Example 214, 1-((trans)-4-(2-fluorophenyl)-1-(2,2,2-trifluoroethyl)pyrrolidin-3-yl)-3-(2-phenyl-2,4,5,6-tetrahydrocyclopenta[c]pyrazol-3-yl)urea], the pIC50 is more than 7.00. The figure for `COCCN1C[C@@H](NC(=O)Nc2c(Cl)c(C)nn2-c2ccccc2)[C@H](c2cncc(F)c2)C1` [Example 434] is more than 7.00. Compound `COCCN1C[C@@H](NC(=O)Nc2cc(C(C)(C)C)nn2-c2cccc(F)c2)[C@H](c2ccccc2)C1` (relative stereo) [Example 17, 1-(3-tert-butyl-1-(3-fluorophenyl)-1H-pyrazol-5-yl)-3-(trans-1-(2-methoxyethyl)-4-phenylpyrrolidin-3-yl)urea] had a pIC50 of 6.00 to 7.00. In the case of `COCC(C(=O)OC)N1C[C@@H](NC(=O)Nc2c3c(nn2-c2ccccc2)CCC3)[C@H](c2ccc(F)c(F)c2)C1` (stereo partly drawn) [Example 259, methyl2-((3R,4S)-3-(3,4-difluorophenyl)-4-(3-(2-phenyl-2,4,5,6-tetrahydrocyclopenta[c]pyrazol-3-yl)ureido)pyrrolidin-1-yl)-3-methoxypropanoate], the pIC50 is more than 7.00.

`O=C(Nc1c2c(nn1-c1ccccc1)CCC2)N[C@@H]1CN(CCC(F)(F)C(F)(F)F)C[C@H]1c1ccccc1` [Example 192, 1-((trans)-1-(3,3,4,4,4-pentafluorobutyl)-4-phenlpyrrrolidin-3-yl)-3-(2-phenyl-2,4,5,6-tetrahydrocyclopenta[c]pyrazol-3-yl)urea] gave a pIC50 of 6.00 to 7.00. `COCCN1C[C@@H](NC(=O)Nc2c(C)c(-c3cc(C)nc(C)c3)nn2-c2ccccc2)[C@H](c2ccc(F)c(F)c2)C1` [Example 514, 1-((3S,4R)-4-(3,4-difluorophenyl)-1-(2-methoxyethyl)pyrrolidin-3-yl)-3-(3-(2,6-dimethylpyridin-4-yl)-4-methyl-1-phenyl-1H-pyrazol-5-yl)urea] showed a pIC50 of more than 7.00.

With `COCCN1C[C@@H](NC(=O)Nc2c(C)c(OC[C@@H]3COC(C)(C)O3)nn2-c2ccccc2)[C@H](c2ccc(F)c(F)c2)C1` [Example 77, 1-((3S,4R)-4-(3,4-difluorophenyl)-1-(2-methoxyethyl)pyrrolidin-3-yl)-3-(3-(((R)-2,2-dimethyl-1,3-dioxolan-4-yl)methoxy)-4-methyl-1-phenyl-1H-pyrazol-5-yl)urea], the pIC50 is more than 7.00. Take `COCCN1C[C@@H](NC(=O)Nc2c(Cl)c(OCC(C)(C)O)nn2-c2ccccc2)[C@H](c2cc(F)cc(F)c2)C1` [Example 370, 1-(4-chloro-3-(2-hydroxy-2-methylpropoxy)-1-phenyl-1H-pyrazol-5-yl)-3-((3S,4R)-4-(3,5-difluorophenyl)-1-(2-methoxyethyl)pyrrolidin-3-yl)urea]: the negative-log IC50 (pIC50) is more than 7.00. On to `COCCN1C[C@@H](NC(=O)Nc2c(Br)c(-c3c(C)noc3C)nn2-c2ccccc2)[C@H](c2ccc(F)c(F)c2)C1` [Example 577, 1-(4-bromo-3-(3,5-dimethylisoxazol-4-yl)-1-phenyl-1H-pyrazol-5-yl)-3-((3S,4R)-4-(3,4-difluorophenyl)-1-(2-methoxyethyl)pyrrolidin-3-yl)urea], for which the negative logarithm of the IC50 (pIC50) was more than 7.00. Compound `COCCN1C[C@@H](NC(=O)Nc2c(C)c(OCCN3CCN(C(=O)OC(C)(C)C)CC3)nn2-c2ccccc2)[C@H](c2ccc(F)c(F)c2)C1` [Example 388, tert-butyl 4-(2-((5-(3-((3S,4R)-4-(3,4-difluorophenyl)-1-(2-methoxyethyl)pyrrolidin-3-yl)ureido)-4-methyl-1-phenyl-1H-pyrazol-3-yl)oxy)ethyl)piperazine-1-carboxylate] had a pIC50 of more than 7.00.

The compound `COCCN1C[C@@H](NC(=O)Nc2cc(-c3ccncc3)nn2C)[C@H](c2ccc(F)c(F)c2)C1` [Example 97, 1-((3S,4R)-4-(3,4-difluorophenyl)-1-(2-methoxyethyl)pyrrolidin-3-yl)-3-(1-methyl-3-(pyridin-4-yl)-1H-pyrazol-5-yl)urea] had a pIC50 of more than 7.00.
